Measured values from ChEMBL document CHEMBL3885881, “DrugMatrix”.

Organism: Rattus norvegicus
Assay type: toxicity, organism-based, Sprague-Dawley
Details: in vivo, po, 24 h, route oral GAVAGE, time 1 day, vehicle .5 % CMC; for ABSOLUTE EOSINOPHIL / ABSOLUTE LYMPHOCYTE / ABSOLUTE MONOCYTE / ABSOLUTE SEGMENTED NEUTROPHIL / BASOPHIL / EOSINOPHIL / ERYTHROCYTE COUNT / HEMATOCRIT / HEMOGLOBIN / LEUKOCYTE COUNT / LYMPHOCYTE / MEAN CORPUSCULAR HEMOGLOBIN / MEAN CORPUSCULAR HEMOGLOBIN CONCENTRATION / MEAN CORPUSCULAR VOLUME / MONOCYTE / NEUTROPHIL / NUCLEATED RED BLOOD CELLS / PLATELET COUNT: tissue Blood; for ALANINE AMINOTRANSFERASE / ALBUMIN / ALKALINE PHOSPHATASE / ASPARTATE AMINOTRANSFERASE / BLOOD UREA NITROGEN / CARBON DIOXIDE / CHLORIDE / CHOLESTEROL / CREATININE / GLUCOSE / LACTATE DEHYDROGENASE / LIPASE / PHOSPHORUS / POTASSIUM / SODIUM / TOTAL BILIRUBIN / TOTAL PROTEIN / URIC ACID: tissue Plasma
[1] = 0 mg/kg, vehicle control, dose level Control

Description: DrugMatrix - Regimen: Single

## COc1ccccc1[N+](=O)[O-] [2-NITROANISOLE]
[1]
  ABSOLUTE EOSINOPHIL: 150 CELLS/uL
  ABSOLUTE LYMPHOCYTE: 13279.83 CELLS/uL
  ABSOLUTE MONOCYTE: 654.5 CELLS/uL
  ABSOLUTE SEGMENTED NEUTROPHIL: 1565.67 CELLS/uL
  BASOPHIL: 0%
  EOSINOPHIL: 1%
  ERYTHROCYTE COUNT: 5.36 x10E6/uL
  HEMATOCRIT: 33.37%
  HEMOGLOBIN: 12.52 G/DL
  LEUKOCYTE COUNT: 15.65 x10E3/uL
  LYMPHOCYTE: 84.83%
  MEAN CORPUSCULAR HEMOGLOBIN: 23.4 pg
  MEAN CORPUSCULAR HEMOGLOBIN CONCENTRATION: 37.52 G/DL
  MEAN CORPUSCULAR VOLUME: 62.32 fL
  MONOCYTE: 4.17%
  NEUTROPHIL: 10%
  NUCLEATED RED BLOOD CELLS: 0 /100WBC
  PLATELET COUNT: 1020 x10E3/uL
  ALANINE AMINOTRANSFERASE: 49 u/L
  ALBUMIN: 4.47 G/DL
  ALKALINE PHOSPHATASE: 361.17 u/L
  ASPARTATE AMINOTRANSFERASE: 78.67 u/L
  BLOOD UREA NITROGEN: 13.17 mg/dL
  CARBON DIOXIDE: 29.67 mmol/L
  CHLORIDE: 100.83 MEQ/L
  CHOLESTEROL: 82.17 mg/dL
  CREATININE: 0.15 mg/dL
  GLUCOSE: 150.83 mg/dL
  LACTATE DEHYDROGENASE: 239.17 u/L
  LIPASE: 7.83 u/L
  PHOSPHORUS: 13.82 mg/dL
  POTASSIUM: 6.62 MEQ/L
  SODIUM: 144.25 MEQ/L
  TOTAL BILIRUBIN: 0.15 mg/dL
  TOTAL PROTEIN: 6.2 G/DL
  URIC ACID: 1.57 mg/dL
740 mg/kg, dose level High
  ABSOLUTE EOSINOPHIL: 270.67 CELLS/uL
  ABSOLUTE LYMPHOCYTE: 12900.33 CELLS/uL
  ABSOLUTE MONOCYTE: 775.33 CELLS/uL
  ABSOLUTE SEGMENTED NEUTROPHIL: 1353.67 CELLS/uL
  BASOPHIL: 0%
  EOSINOPHIL: 2%
  ERYTHROCYTE COUNT: 5.82 x10E6/uL
  HEMATOCRIT: 35.73%
  HEMOGLOBIN: 13 G/DL
  LEUKOCYTE COUNT: 15.3 x10E3/uL
  LYMPHOCYTE: 84.33%
  MEAN CORPUSCULAR HEMOGLOBIN: 22.4 pg
  MEAN CORPUSCULAR HEMOGLOBIN CONCENTRATION: 36.43 G/DL
  MEAN CORPUSCULAR VOLUME: 61.43 fL
  MONOCYTE: 5%
  NEUTROPHIL: 8.67%
  NUCLEATED RED BLOOD CELLS: 0 /100WBC
  PLATELET COUNT: 1078.67 x10E3/uL
  ALANINE AMINOTRANSFERASE: 63 u/L
  ALBUMIN: 4.53 G/DL
  ALKALINE PHOSPHATASE: 432.67 u/L
  ASPARTATE AMINOTRANSFERASE: 85.67 u/L
  BLOOD UREA NITROGEN: 13 mg/dL
  CARBON DIOXIDE: 29 mmol/L
  CHLORIDE: 102.33 MEQ/L
  CHOLESTEROL: 77.67 mg/dL
  CREATININE: 0.2 mg/dL
  GLUCOSE: 124.33 mg/dL
  LACTATE DEHYDROGENASE: 283.67 u/L
  LIPASE: 9 u/L
  PHOSPHORUS: 12.9 mg/dL
  POTASSIUM: 7.13 MEQ/L
  SODIUM: 144.43 MEQ/L
  TOTAL BILIRUBIN: 0.27 mg/dL
  TOTAL PROTEIN: 6.03 G/DL
  URIC ACID: 1.33 mg/dL
